Results on 2 molecules are retold here after US8492550B2, “Hydroxyalkanyl amides as modulators of chemokine receptor activity” (Bristol-Myers Squibb Company, priority 2008, dated 2013).

For this assay, the target named is T1, CCR1 (Homo sapiens, UniProt P32246).
T1 construct: the THP-1 cell line, which expresses the endogenous CCR1 receptor; endogenous in cells; host or cells: THP-1 (human monocytic cell line); human PBMC or human monocytes are named as alternatives
T1 sequence (P32246 1-355): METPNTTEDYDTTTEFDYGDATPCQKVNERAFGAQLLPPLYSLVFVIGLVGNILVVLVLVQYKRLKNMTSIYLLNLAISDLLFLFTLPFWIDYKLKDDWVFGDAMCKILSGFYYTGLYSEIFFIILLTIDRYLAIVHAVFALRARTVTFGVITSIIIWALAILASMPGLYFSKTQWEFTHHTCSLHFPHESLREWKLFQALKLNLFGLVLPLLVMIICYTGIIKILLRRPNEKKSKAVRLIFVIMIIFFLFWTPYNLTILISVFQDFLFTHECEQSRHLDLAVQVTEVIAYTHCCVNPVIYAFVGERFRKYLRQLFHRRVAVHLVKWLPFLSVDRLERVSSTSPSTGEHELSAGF
Kind of assay: Antagonism of 125I-MIP-1α binding to human THP-1 cells (CCR1 binding). The note with it: THP-1 cells expressing endogenous CCR1; 50 pM 125I-labeled human MIP-1α; room temperature, thirty minutes; read-out: CCR1 Binding Ki (n = 1 unless otherwise noted). As to the method: Antagonism of MIP-1α Binding to Human THP-1 Cells
Compounds of the present invention have activity in the antagonism of MIP-1α binding to human THP-1 cells described here.
Millipore filter plates (#MABVN1250) are treated with 100 μl of binding buffer (0.5% bovine serum albumin, 20 mM HEPES buffer and 5 mM magnesium chloride in RPMI 1640 media) for thirty minutes at room temperature. To measure binding, 50 μl of binding buffer, with or without a known concentration of compound, is combined with 50 μl of ^125-I labeled human MIP-1α (to give a final concentration of 50 pM radioligand) and 50 μl of binding buffer containing 5×10^5 cells. Cells used for such binding assays can include the THP-1 cell line, which expresses the endogenous CCR1 receptor, or human peripheral blood mononuclear cells, isolated by Ficoll-Hypaque gradient centrifugation, or human monocytes (Weiner et al., J. Immunol. Methods, 36:89 (1980)). The mixture of compound, cells and radioligand is incubated at room temperature for thirty minutes. Plates are placed onto a vacuum manifold, vacuum applied, and the plates washed three times with binding buffer containing 0.5M NaCl. The plastic skirt is removed from the plate, the plate allowed to air dry, the wells punched out and counted. […]

With `CCC(NC(=O)C1CCCC1)C(O)C1CCN(c2ccc(Cl)cc2)CC1` (single isomer, unassigned) [Example 1, N-(1-(1-(4-Chlorophenyl)piperidin-4-yl)-1-hydroxybutan-2-yl)cyclopentanecarboxamide], the inhibition constant Ki – broadly, a dissociation constant, usually derived from enzyme kinetics or from competition with a known ligand – came to 930 nM.

Regarding `CCC(NC(=O)C1CCCC1)C(O)C1CCN(c2ccc(Cl)cc2)CC1` (single isomer, unassigned) [Example 2, N-(1-(1-(4-Chlorophenyl)piperidin-4-yl)-1-hydroxybutan-2-yl)cyclopentanecarboxamide], the Ki came to 354 nM.
